The target in one assay is T1, Dopamine D2 (Rattus norvegicus, UniProt P61169).
T1 construct: The corpus striatum was crudely dissected and frozen on dry ice; from tissue; host or cells: rat corpus striatum membranes (male Sprague-Dawley rats, Charles River)
The experiment in a line: Dopamine D2 Binding Assay ([3H]Spiperone, corpus striatum membranes). The arrangement: species or system male Sprague-Dawley rats. The settings on record: [3H]Spiperone 0.1 nM, 37° C., 15 min. The procedure:
Activity at D2 sites is measured using the screening process set out in Example 67.
Dopamine D2 Binding Assay
Dopamine D2 affinity was determined according to the procedures of Burt, Creese and Snyder [Molecular Pharmacology 12,800 (1976); Science 196, 326 (1977); Science 192, 481 (1976)]. Briefly, male Sprague-Dawley rats (Charles River) were decapitated, brains rapidly removed and chilled in ice-cold 50 mM Hepes/KOH buffer (pH 7.4, 20° C.). The corpus striatum was crudely dissected and frozen on dry ice. Tissue was pooled and stored at -80° C. until use. On the day of assay, tissue was thawed in 20 ml ice-cold Hepes/KOH buffer, and homogenized with a polytron for 15 sec at 18,000 rpm. The homogenate was centrifuged (39,000×g, 10 min, at 4° C.). The supernatant was discarded and the pellet rehomogenized in ice-cold Hepes/KOH buffer and recentrifuged as described previously. The supernatant was again discarded and the pellet resuspended (1:100) in ice-cold Hepes/KOH buffer (pH 7.4, 20° C., containing 120 mM NaCl, 5 mM KCl, 1 mM MgCl2, 0.1% (w/v) ascorbic acid, and 10 μM pargylline, and stored on ice until assay. The binding assay (1 ml total volume) was performed in duplicate and initiated by the addition of 800 μl membrane homogenate to tubes containing 100 μl [^3 H]Spiperone (0.1 nM final concentration), and 100 μl competitor, buffer, or butaclamol, which was used to define the non-specific binding. The assay was incubated at 37° C. for 15 min, afterwhich the assay was terminated by rapid filtration.
In vitro IC50 test values for binding to the D2 receptor were determined for representative compounds of Formula I by the method of Burt, Creese, and Snyder, Molecular Pharmacology 12, 800 (1976); Creese, Burt, and Snyder, Science 196, 326 (1977); and Creese, Burt and Snyder, Science 192, 481 (1976). Test IC50 values greater than 1,000 nM are considered to reflect inactivity at the D2 receptor, indicating the risk of extrapyramidal side effects is small.

A further assay relates to brain ischemia. The experiment in a line: Anoxic Nitrogen Test in Rats. The following applies: Rattus norvegicus, sc, subcutaneously, 2 hr survival, read-out: Nitrogen Anoxia % Survival. It is filed as in vivo, male Sprague-Dawley rats. From the text: Most specifically, administration of the compounds of Formula I results in protection against hypoxia-induced death in an anoxic nitrogen test in rats (Example 66). The test identifies the neuro-protective effects of substances against lethal brain damages produced by a lack of oxygen consumption (anoxia). In this test procedure, control animals exposed for one minute to a pure nitrogen atmosphere will expire because of respiratory failure caused by irreversible damage to the brain respiratory center.
Anoxic Nitrogen Test in Rats
The animals utilized are male Sprague-Dawley rats (200-400 grams) housed four animals per cage in a normal controlled environment with unlimited access to food and water. Usually there are 8 animals per dose, however, […] can be employed to obtain an initial impression of a compound's activity. Animals are parenterally or orally administered the vehicle or test compound 30 minutes before the anoxic insult. The anoxic episode consists of placing up to 8 animals in the sealed test chamber (10" l×10" w×6" h) continuously flushed with pure N2 (4.5 grade) at a flow rate of 5 SCFM for 1 min. Animals are then promptly removed to normal atmosphere and observed for the 2 hour period. Typically, animals become disoriented within 15 sec after which they remain motionless.
Even though the heart is still beating after the N2 exposure, all control animals fail to gasp when removed from the chamber and usually expire within 3 minutes. Drug treated animals, however, still gasp or start gasping after being removed, which is a good indication that the animals will survive the N2 exposure [see Wauquire, A., et al: Arch. Int. Pharmacodyn., 249, 330-334 (1981); Wauquier, A., et al: Drug Dev. Res., 8, 373-380 (1986)]. Results are recorded as:
(Number of animals surviving (2 hr))/(Number of animals tested)×100%
The anoxic nitrogen test is an in vivo model of brain ischemia in rats [see: Wauquire, A., et al: Arch. Int. Pharmacodyn., 249, 330-334 (1981); Wauquier, A., et al: Drug Dev. Res., 8, 373-380 (1986)]. Compounds of the present invention are active in this in vivo model of brain ischemia when given subcutaneously in the doses indicated in Table 2, thus providing additional evidence that the present compounds will be useful in the treatment of brain ischemia.

Another assay concerns the target T2, sigma receptor (Cavia porcellus, UniProt Q60492).
T2 construct: from tissue
Briefly: Sigma binding (method of Tam and Cook). The protocol:
In vitro IC50 test values for binding to the sigma receptor were determined for representative compounds of Formula I by the method of Tam and Cook [see: Tam, S. W., and Cook, L: Proc. Natl. Acad. Sci. USA 81, 5618-5621 (1984)] with only minor modifications. Test IC50 values lower than 100 nM are considered to reflect activity at the sigma receptor.

Like-named read-outs stand apart in the source and are kept apart here.

Broadly, the IC50 is the midpoint of a concentration-inhibition curve. High values mean a need for much substance, low ones inhibition by little substance.

T2 sequence (Q60492 whole entry): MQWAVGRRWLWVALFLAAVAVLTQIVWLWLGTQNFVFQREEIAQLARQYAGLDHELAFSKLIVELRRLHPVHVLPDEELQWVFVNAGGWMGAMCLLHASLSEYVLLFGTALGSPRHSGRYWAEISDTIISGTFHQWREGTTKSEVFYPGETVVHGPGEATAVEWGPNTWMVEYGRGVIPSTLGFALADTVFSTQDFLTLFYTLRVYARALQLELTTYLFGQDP
T1 sequence (P61169 whole entry): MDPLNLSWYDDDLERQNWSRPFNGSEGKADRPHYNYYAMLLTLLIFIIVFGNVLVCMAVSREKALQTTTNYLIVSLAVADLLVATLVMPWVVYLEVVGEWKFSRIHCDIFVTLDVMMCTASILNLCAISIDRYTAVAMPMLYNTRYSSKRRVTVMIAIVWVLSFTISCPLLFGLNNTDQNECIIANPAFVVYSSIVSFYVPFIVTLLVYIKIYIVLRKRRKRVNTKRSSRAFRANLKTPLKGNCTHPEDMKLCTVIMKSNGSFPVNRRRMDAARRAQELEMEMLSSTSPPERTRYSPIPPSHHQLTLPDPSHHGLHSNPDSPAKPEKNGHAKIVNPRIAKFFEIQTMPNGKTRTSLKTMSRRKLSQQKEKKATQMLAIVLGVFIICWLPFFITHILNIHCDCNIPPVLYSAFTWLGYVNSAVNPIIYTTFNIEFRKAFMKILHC

Regarding `Fc1ccc(CN2CCN(C3CC=C(c4ccc(F)cc4)CC3)CC2)cc1` (stereo not drawn) [Example 41, 1-[4-(4-Fluorophenyl)-3-cyclohexen-1-yl]-4-[(4-fluorophenyl)methyl]piperazine], the IC50 at Dopamine D2 is 1000 to 10000 nM; on sigma receptor, 0.6 nM. Also, in the assay with brain ischemia (20 mg/kg), the responders at 20 mg/kg came out at 92%.

Take `FC(F)(F)c1ccc(C2=CCC(N3CCN(Cc4ccccc4)CC3)CC2)cc1` (stereo not drawn) [Example 40, 1-(Phenylmethyl)-4-[4-[4-(trifluoromethyl)phenyl]-3-cyclohexen-1-yl]piperazine]: the IC50 is 10000 to 50000 nM on Dopamine D2 and 4.5 nM on sigma receptor. The responders at 10 mg/kg in the assay on brain ischemia amounted to 100%.

As to `COc1cccc(CN2CCN(C3CC=C(c4ccc(F)cc4)CC3)CC2)c1` (stereo not drawn) [Example 60, 1-[(4-Fluorophenyl)-3-cyclohexen-1-yl]-4-[(3-methoxyphenyl)methyl]piperazine], the IC50 at Dopamine D2 is 1000 to 10000 nM; at sigma receptor, 5.2 nM. The responders at 10 mg/kg in the assay with brain ischemia came to 50%.

With `Fc1ccc(CN2CCN(C3CC=C(c4ccc(C(F)(F)F)cc4)CC3)CC2)cc1` (stereo not drawn) [Example 42, 1-[(4-Fluorophenyl)methyl]-4-[4-[4-(trifluoromethyl)phenyl]-3-cyclohexen-1-yl]piperazine], the IC50 was more than 100000 nM on Dopamine D2 and 6.9 nM at sigma receptor. In the assay with brain ischemia (20 mg/kg), the responders at 20 mg/kg was 100%.

Consider `COc1cccc(CC2CCN(C3CC=C(c4ccc5c(c4)OCO5)CC3)CC2)c1` (stereo not drawn) [Example 52, 1-[4-(1,3-Benzodioxol-5-yl)-3-cyclohexen-1-yl]-4-[(3-methoxyphenyl)methyl]piperidine], for which the half-inhibitory concentration (IC50) at Dopamine D2 was 1000 to 10000 nM; at sigma receptor, 7.4 nM. Also, the responders at 10 mg/kg with brain ischemia was determined as 38%.

On to `C1=C(c2ccc3c(c2)OCO3)CCC(N2CCN(Cc3ccccc3)CC2)C1` (stereo not drawn) [Example 37, 1-[4-(1,3-Benzodioxol-5-yl)-3-cyclohexen-1-yl]-4-(phenylmnethyl) piperazine], for which the IC50 was 10000 to 50000 nM on Dopamine D2 and 1.9 nM on sigma receptor. Further, in the assay on brain ischemia, the responders at 40 mg/kg worked out at 92%.

As to `Fc1ccc([C@H]2CC[C@H](N3CCN(Cc4ccccc4)CC3)CC2)c2ccccc12` [Example 62-trans, Cis and trans 1-[4-(4-fluoro-1-naphthalenyl)-1-cyclohexyl]-4-(phenylmethyl)piperazine], the IC50 was more than 100000 nM on Dopamine D2 and 3.3 nM at sigma receptor. In the assay with brain ischemia, the responders at 40 mg/kg came out at 100%.

As to `Fc1ccc(F)c(CC2CCN(C3CC=C(c4ccc5c(c4)OCO5)CC3)CC2)c1` (stereo not drawn) [Example 54, 1-[4-(1,3-Benzodioxol-5-yl)-3-cyclohexen-1-yl]-4-[(2,5-difluorophenyl)methyl]piperidine], the IC50 on Dopamine D2 was 1000 to 10000 nM; on sigma receptor, 3.6 nM. In the assay on brain ischemia, the responders at 10 mg/kg stood at 38%.

As for `Clc1ccc2[nH]cc(C3=CCC(N4CCN(Cc5ccccc5)CC4)CC3)c2c1` (stereo not drawn) [Example 50, 5-Chloro-3-{4-[4-(phenylmethyl)-1-piperazinyl]-1-cyclohexen-1-yl]-1H-indole], the IC50 at Dopamine D2 was 10000 to 50000 nM; on sigma receptor it was 31.4 nM. The responders at 20 mg/kg with brain ischemia (20 mg/kg) is 100%.

In the case of `Fc1ccc2[nH]cc(C3=CCC(N4CCC(Cc5ccccc5)CC4)CC3)c2c1` (stereo not drawn) [Example 51, 5-Fluoro-3-{4-[4-(phenylmethyl)-1-piperidinyl]-1-cyclohexen-1-yl]-1H-indole], the IC50 at Dopamine D2 was 1000 to 10000 nM; at sigma receptor it was 11.1 nM. For the same compound, the responders at 20 mg/kg in the assay with brain ischemia (20 & 40 mg/kg) came out at 67%.

For the compound `COc1ccc(C2=CCC(N3CCN(Cc4ccccc4)CC3)CC2)cc1` (stereo not drawn) [Example 39, 1-[4-(4-Methoxyphenyl)-3-cyclohexen-1-yl]-4-(phenylmethyl)piperazine], the IC50 on Dopamine D2 is 1000 to 10000 nM; at sigma receptor it was 0.9 nM. The responders at 20 mg/kg in the assay on brain ischemia (20 & 30 mg/kg) was 92%.

Regarding `COc1ccc2[nH]cc(C3=CCC(N4CCN(Cc5ccccc5)CC4)CC3)c2c1` (stereo not drawn) [Example 48, 5-Methoxy-3-[4-[4-(phenylmethyl)-1-piperazinyl]-1-cyclohexen-1-yl]-1H-indole], the IC50 on Dopamine D2 is 1000 to 10000 nM; at sigma receptor, 6.2 nM. In addition, in the assay on brain ischemia, the responders at 40 mg/kg came to 88%.

On to `Fc1ccc([C@H]2CC[C@@H](N3CCN(Cc4ccccc4)CC3)CC2)c2ccccc12` [Example 62-cis, Cis and trans 1-[4-(4-fluoro-1-naphthalenyl)-1-cyclohexyl]-4-(phenylmethyl)piperazine], for which the figures for the IC50 on Dopamine D2 and on sigma receptor were more than 100000 nM and 6.9 nM, respectively. Further, the responders at 40 mg/kg in the assay on brain ischemia came to 63%.

Consider `Fc1ccc(C2=CCC(N3CCC(Cc4ccccc4)CC3)CC2)cc1` (stereo not drawn) [Example 47, 1-[4-(4-Fluorophenyl)-3-cyclohexen-1-yl]-4-(phenylmethyl)piperidine], for which the IC50 on Dopamine D2 was 1000 to 10000 nM; on sigma receptor, 4 nM. The responders at 40 mg/kg with brain ischemia was determined as 88%.

As for `C1=C(Cc2ccccc2)CCC(N2CCN(Cc3ccccc3)CC2)C1` (stereo not drawn) [Example 43, 1-(Phenylmethyl)-4-[4-(phenylmethyl)-3-cyclohexen-1-yl]piperazine], the values for the IC50 at Dopamine D2 and on sigma receptor were 1000 to 10000 nM and 2.1 nM, respectively. The responders at 5 mg/kg with brain ischemia (5 mg/kg) turned out to be 75%.

For the compound `Fc1ccc([C@H]2CC[C@H](N3CCN(Cc4ccccc4)CC3)CC2)cc1` [Example 63, Trans 1-[4-(4-fluorophenyl)-1-cyclohexyl]-4-(phenylmethyl)piperazine], the IC50 is 1000 to 10000 nM at Dopamine D2 and 0.7 nM at sigma receptor. For the same compound, the responders at 20 mg/kg in the assay with brain ischemia (20 & 40 mg/kg) worked out at 75%.

Take `Fc1ccc(C2=CCC(N3CCN(Cc4ccncc4)CC3)CC2)cc1` (stereo not drawn) [Example 46, 1-[4-(4-Fluorophenyl)-3-cyclohexen-1-yl]-4-(4-pyridinylmethyl)piperazine]: the IC50 at Dopamine D2 is 50000 to 100000 nM; at sigma receptor, 0.5 nM. Further, the responders at 20 mg/kg with brain ischemia (20 mg/kg) stood at 83%.

As to `C1=C(c2nc3ccccc3s2)CCC(N2CCN(Cc3ccccc3)CC2)C1` (stereo not drawn) [Example 38, 1-[4-(2-Benzothiazolyl)-3-cyclohexen-1-yl]-4-(phenylmethyl)piperazine], the results for the IC50 on Dopamine D2 and at sigma receptor were 10000 to 50000 nM and 3.9 nM, respectively. In addition, the responders at 80 mg/kg in the assay on brain ischemia (80 mg/kg) turned out to be 100%.

These data come from patent US6153611A, “Piperazinyl-cyclohexanes and cyclohexenes” (Bristol-Myers Squibb Company, priority 1993, dated 2000).
